Measured values as given in patent US7968601B2, “Adamantyl acetamides as 11-β hydroxysteroid dehydrogenase inhibitors” (Janssen Pharmaceutica N.V., priority 2002, dated 2011).

Experiments:
11b-HSD2 [1] = target: T1, 11b-HSD2 (Homo sapiens, UniProt P80365); assay: Cellular assay, 11b-HSD2 activity in HepG2 cells; type: cell-based; parameters: endogenous in cells; host or cells: HepG2 (ATCC HB-8065); conditions: 4 hour pre-incubation, pIC50 scored 1-3, read-out: [C2] HSD2 cellular HepG2 Score
T1 sequence (P80365 1-405): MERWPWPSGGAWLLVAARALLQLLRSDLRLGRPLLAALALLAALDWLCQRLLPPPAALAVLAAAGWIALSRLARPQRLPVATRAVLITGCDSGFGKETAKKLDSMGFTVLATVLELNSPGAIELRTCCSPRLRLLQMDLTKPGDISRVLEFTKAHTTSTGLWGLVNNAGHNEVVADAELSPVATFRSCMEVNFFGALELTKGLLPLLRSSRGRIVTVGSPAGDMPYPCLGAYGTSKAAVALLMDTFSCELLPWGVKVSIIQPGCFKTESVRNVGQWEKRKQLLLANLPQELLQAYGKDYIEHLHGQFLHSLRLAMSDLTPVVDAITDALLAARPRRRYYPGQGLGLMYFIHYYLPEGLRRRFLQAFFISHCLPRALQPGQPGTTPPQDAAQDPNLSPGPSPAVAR
Protocol: The effects on 11b-HSD2 activity was studied in HepG2 and LCC-PK1-cells HepG2-cells (ATCC HB-8065) were seeded in 12 well plates at a density of 100,000 cells/ml and grown at 37 C in a humidified 5% CO2 atmosphere in MEM-Rega-3 medium supplemented with 10% heat inactivated foetal calf serum, 2 mM L-glutamine and sodium bicarbonate). Medium was refreshed twice a week. Pig kidney cells (LCC-PK1, ATCC CRL-1392) were seeded at a density of 150,000 cells/ml in 12 well plates and grown at 37 C in a humidified 5% CO2 atmosphere in Medium 199 supplemented with Earls modified salt solution, 100 U/ml penicillin, 100 μg/ml streptomycin and 10% foetal calf serum. Medium was refreshed twice a week. Twenty four hours prior to the onset of the experiment, medium was changed by medium containing 10% charcoal stripped foetal calf serum.
Following a 4 hour pre-incubation with test compound, 0.5 μCi ^3H-cortisol or corticosterone, was added to the cultures. One hour later, the medium was extracted on Extrelut^3-columns with 15 ml diethyl ether and the extract was analysed by HPLC as described above.
(§1) As for the enzymatic assays, the compounds to be tested were taken from a stock solution and tested at a final concentration ranging from […] to 3.10^−9M. From the thus obtained dose response curves, the pIC50 value was calculated and scored as follows; Score 1=pIC50 value<5, Score 2=pIC50 value in the range of 5 to 6, Score 3=pIC50 value>6. (in this table NT stands for Not Tested).

11b-HSD1 [2] = target: T2, 11b-HSD1 (Mus musculus, UniProt P50172); assay: Cellular assay, 11b-HSD1 activity in differentiated 3T3-L1 cells; type: cell-based; conditions: 4 hour pre-incubation, pIC50 scored 1-3, read-out: [C2] HSD1 cellular 3T3-L1 Score
T2 construct: endogenous in cells; host or cells: 3T3-L1 (ATCC-CL-173), differentiated into adipocytes
Protocol: The effects on 11b-HSD1 activity was measured in differentiated 3T3-L1 cells and rat hepatocytes.
Mouse fibroblast 3T3-L1 cells (ATCC-CL-173) were seeded at a density of 16500 cells/ml in 12 well plates and grown for 7 days in DMEM medium (supplemented with 10% heat inactivated foetal calf serum, 2 mM glutamine and 25 mg gentamycin) at 37 C in a humidified 5% CO2 atmosphere. Medium was refreshed twice a week. Fibroblasts were differentiated into adipocytes at 37 C in a 5% CO2 humidified atmosphere in growth medium containing 2 μg/ml insulin, 55 μg/ml IBMX and 39.2 μg/ml dexamethasone.
Following a 4 hour pre-incubation with test compound, 0.5 μCi ^3H-cortisone or dehydrocorticosterone, was added to the cultures. One hour later, the medium was extracted on Extrelut^3-columns with 15 ml diethyl ether and the extract was analysed by HPLC as described above.
as §1

11b-HSD1 [3] = target: 11b-HSD1 (Homo sapiens, UniProt P28845); assay: Enzymatic assay, 11b-HSD1 reductase activity (conversion of cortisone into cortisol); type: biochemical; conditions: pIC50 scored 1-3, read-out: [C1] HSD1-prot Reduct Score
Protocol: The effects of compounds on 11b-HSD1 dependent conversion of cortisone into cortisol (reductase activity) was studied in a reaction mixture containing 30 mM Tris-HCl buffer pH 7.2, 180 μM NADPH, 1 mM EDTA, 2 μM cortisone, 1 μl drug and/or solvent and 11 μg recombinant protein in a final volume of 100 μl.
(§2) All incubations were performed for 45 min at 37 C in a water bath. The reaction was stopped by adding 100 μl acetonitrile containing 20 μg corticosterone as internal standard. After centrifugation, the product formation was analysed in the supernatant by HPLC on a Hypersyl BDS-C18 column using 0.05 mM ammonium acetate/methanol (50/50) as solvent. In all of the aforementioned assays, the drugs to be tested were taken from a stock solution and tested at a final concentration ranging from […] to 3.10^−9M. From the thus obtained dose response curves, the pIC50 value was calculated and scored as follows; Score 1=pIC50 value<5, Score 2=pIC50 value in the range of 5 to 6, Score 3=pIC50 value>6. (in this table NT stands for Not Tested).

11b-HSD2 [4] = target: T1, 11b-HSD2; assay: Enzymatic assay, 11b-HSD2 dependent dehydrogenase activity; type: biochemical; conditions: 11b-HSD2 dehydrogenase activity, pIC50 scored 1-3, read-out: [C1] HSD2 prot Dehydro Score
Protocol: The effects on the 11b-HSD2 dependent dehydrogenase activity was studied in a reaction mixture containing 0.1M sodium phosphate buffer pH 7.5, 300 μM NAD, 100 nM cortisol (of which 2 nM is 3H-radio labelled), 1 μl drug and/or solvent and 2.5 μg recombinant protein in a final volume of 100 μl.
as §2

T2 sequence (P50172 whole entry): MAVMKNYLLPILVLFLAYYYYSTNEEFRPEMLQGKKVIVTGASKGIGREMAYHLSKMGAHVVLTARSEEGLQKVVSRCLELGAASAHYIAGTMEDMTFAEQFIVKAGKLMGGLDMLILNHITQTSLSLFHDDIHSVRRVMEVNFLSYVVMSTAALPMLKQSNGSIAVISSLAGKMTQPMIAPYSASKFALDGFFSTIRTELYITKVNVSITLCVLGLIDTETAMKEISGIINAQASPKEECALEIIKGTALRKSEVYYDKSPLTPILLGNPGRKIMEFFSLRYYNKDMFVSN
Chain of 11b-HSD1 (Homo sapiens, UniProt P28845) (P28845 whole entry): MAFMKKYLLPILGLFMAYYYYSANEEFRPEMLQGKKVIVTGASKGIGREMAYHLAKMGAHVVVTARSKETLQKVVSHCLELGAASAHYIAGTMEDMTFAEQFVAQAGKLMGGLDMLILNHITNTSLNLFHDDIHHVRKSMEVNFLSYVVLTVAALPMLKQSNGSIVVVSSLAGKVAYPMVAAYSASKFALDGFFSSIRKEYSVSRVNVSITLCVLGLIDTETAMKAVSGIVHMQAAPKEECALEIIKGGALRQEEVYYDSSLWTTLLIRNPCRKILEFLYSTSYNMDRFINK

SMILES | IC50 (11b-HSD2 [1]) [µM] | IC50 (11b-HSD1 [2]) [µM] | IC50 (11b-HSD1 [3]) [µM] | IC50 (11b-HSD2 [4]) [µM]
CC1CCC(C(=O)NC2C3CC4CC(C3)CC2C4)c2ccccc21 (centres unmarked) [Compound 236] | > 10 | < 1 | < 1 | > 10
CC(C)(C(=O)N[C@H]1[C@@H]2CC3C[C@H]1C[C@](O)(C3)C2)c1cccc(OCCN2CCOCC2)c1 [Compound 158] | > 10 | < 1 | > 10 | > 10
COc1cccc2c1OCC=C2C(=O)NC1C2CC3CC(C2)CC1C3 (centres unmarked) [Compound 171] | > 10 | < 1 | < 1 | > 10
CC(C)(C(=O)NC1C2CC3CC(C2)CC1C3)c1ccc(F)cc1 (centres unmarked) [Compound 41] | > 10 | < 1 | < 1 | > 10
COc1cc(C)cc(C(C)(C)C(=O)N[C@H]2[C@@H]3CC4C[C@H]2C[C@](F)(C4)C3)c1 [Compound 263] | > 10 | < 1 | > 10 | > 10
O=C(O)CCc1cccc2c1CCCC2C(=O)NC1C2CC3CC(C2)CC1C3 (centres unmarked) [Compound 240] | > 10 | < 1 | > 10 | > 10
CC(=Cc1ccccc1)C(=O)NC1C2CC3CC(C2)CC1C3 (centres unmarked) [Compound 151] | > 10 | < 1 | 1 to 10 | > 10
CN(C)c1ccc(C(C)(C)C(=O)NC2C3CC4CC(C3)CC2C4)cc1 (centres unmarked) [Compound 52] | > 10 | < 1 | > 10 | > 10
CC(C)(C(=O)N[C@@H]1[C@@H]2CC3C[C@H]1C[C@@](O)(C3)C2)c1cccc(CCC(=O)O)c1 [Compound 242] | > 10 | < 1 | 1 to 10 | > 10
O=C(NC1C2CC3CC(C2)CC1C3)C1CCCCc2ccccc21 (centres unmarked) [Compound 169] | > 10 | < 1 | < 1 | > 10
CC(C)(C(=O)NC1C2CC3CC(C2)CC1C3)c1ccc(F)cc1F (centres unmarked) [Compound 87] | > 10 | < 1 | > 10 | > 10
CC(C)(C(=O)NC1C2CCCC1CCC2)c1ccccc1 (centres unmarked) [Compound 48] | > 10 | < 1 | > 10 | > 10
O=C(NC1C2CC3CC(C2)CC1C3)C1(c2ccncc2)CCCC1 (centres unmarked) [Compound 127] | > 10 | < 1 | > 10 | > 10
CC(C)(C(=O)NC1C2CC3CC(C2)CC1C3)c1cccc(O)c1 (centres unmarked) [Compound 5] | > 10 | < 1 | < 1 | > 10
O=C(NC1C2CC3CC(C2)CC1C3)C1(c2cccnc2)CCCC1 (centres unmarked) [Compound 126] | > 10 | < 1 | < 1 | > 10
CC(=CC(=O)NC1C2CC3CC(C2)CC1C3)c1ccccc1 (centres unmarked) [Compound 153] | > 10 | < 1 | 1 to 10 | > 10
O=C(O)CCc1cccc2c1CCCC2C(=O)N[C@H]1[C@@H]2CC3C[C@H]1C[C@](F)(C3)C2 (some centres unmarked) [Compound 258] | > 10 | < 1 | < 1 | > 10
CNc1cccc(C(C)(C)C(=O)NC2C3CC4CC(C3)CC2C4)c1 (centres unmarked) [Compound 77] | > 10 | < 1 | > 10 | 1 to 10
Cc1cc(CCC(=O)O)cc(C(C)(C)C(=O)NC2C3CC4CC(C3)CC2C4)c1 (centres unmarked) [Compound 230] | > 10 | < 1 | < 1 | > 10
CC(C)(C(=O)NC1CCCCCCC1)c1ccccc1 [Compound 46] | > 10 | < 1 | > 10 | > 10
CC(C)(C(=O)NC1C2CC3CC(C2)CC1C3)c1cc(F)ccc1F (centres unmarked) [Compound 88] | > 10 | < 1 | > 10 | > 10
CC(C)(C(=O)NC1C2CC3CC(C2)CC1C3)c1cccnc1 (centres unmarked) [Compound 128] | > 10 | < 1 | < 1 | > 10
COc1ccc(C(C)(C)C(=O)NC2C3CC4CC(C3)CC2C4)cc1OC (centres unmarked) [Compound 86] | > 10 | < 1 | > 10 | > 10
COc1cc(C)cc(C(C)(C)C(=O)NC2C3CC4CC(C3)CC2C4)c1 (centres unmarked) [Compound 210] | > 10 | < 1 | > 10 | > 10
O=C(NC1C2CC3CC(C2)CC1C3)C1=CCCc2c(Br)cccc21 (centres unmarked) [Compound 223] | > 10 | < 1 | < 1 | > 10
CN(C)c1cccc(C(C)(C)C(=O)NC2C3CC4CC(C3)CC2C4)c1 (centres unmarked) [Compound 78] | > 10 | < 1 | < 1 | 1 to 10
